Test results from patent US9023874B2, “Fluorinated oxa or thia heteroarylalkylsulfide derivatives for combating invertebrate pests” (Merial, Inc., priority 2009, dated 2015).

Legend:
Type in all cases: in vivo
[1] = tested on: cowpea aphid (Aphis craccivora); experiment: Activity against cowpea aphid, sprayed potted cowpea plants; conditions: spray, population reduction assessed after 24, 72 and 120 hours, read-out: mortality in comparison with untreated controls
Procedure: The active compounds were formulated in 50:50 (vohvol) acetone:water. The test solution was prepared at the day of use.
Potted cowpea plants colonized with 100-150 aphids of various stages were sprayed after the pest population had been recorded. Population reduction was assesed after 24, 72, and 120 hours.

[2] = tested on: vetch aphid (Megoura viciae); experiment: Activity against vetch aphid, sprayed bean leaf disks in microtiter plates; conditions: foliar, 144 h, test solution 2500 mg/L, leaf disk spray, 6 days, read-out: mortality in comparison with untreated controls
Procedure: The active compounds were formulated in 1:3 (vol:vol) DMSO:water with different concentrations of formulated compounds.
Bean leaf disks were placed into microtiterplates filled with 0.8% agar-agar and 2.5 ppm OPUST™. The leaf disks were sprayed with 2.5 μl of the test solution and 5 to 8 adult aphids were placed into the microtiterplates which were then closed and kept at 23±1° C. and 50±5% relative humidity under fluorescent light for 6 days. Mortality was assessed on the basis of vital, reproduced aphids. Aphid mortality and fecundity was then visually assessed.

[3] = tested on: silverleaf whitefly (Bemisia argentifolii, adult); experiment: Activity against silverleaf whitefly adults, sprayed cotton plants; conditions: 72 h, spray, 3 days after treatment, read-out: mortality in comparison with untreated controls
Procedure: The active compounds were formulated in cyclohexanone as a 10,0000 ppm solution supplied in 1.3 ml ABgene® tubes. These tubes were inserted into an automated electrostatic sprayer equipped with an atomizing nozzle and they served as stock solutions for which lower dilutions were made in 50% acetone:50% water (v/v). A nonionic surfactant (Kinetic®) was included in the solution at a volume of 0.01% (v/v).
Cotton plants at the cotyledon stage (one plant per pot) were sprayed by an automated electrostatic plant sprayer equipped with an atomizing spray nozzle. The plants were dried in the sprayer fume hood and then removed from the sprayer. Each pot was placed into a plastic cup and 10 to 12 whitefly adults (approximately 3-5 days old) were introduced. The insects were collected using an aspirator and 0.6 cm, nontoxic Tygon® tubing (R-3603) connected to a barrier pipette tip. The tip, containing the collected insects, was then gently inserted into the soil containing the treated plant, allowing insects to crawl out of the tip to reach the foliage for feeding. Cups were covered with a reusable screened lid (150-micron mesh polyester screen PeCap from Tetko, Inc.). […] Mortality was assessed 3 days after treatment, compared to untreated control plants.

[4] = tested on: boll weevil (Anthonomus grandis); experiment: Activity against boll weevil, insect diet with eggs in microtiter plates; conditions: 120 h, test solution 2500 mg/L, sprayed onto diet, 5 days, read-out: mortality (egg and larval) in comparison with untreated controls
Procedure: The compounds were formulated in 75:25 (vohvol) water:DMSO.
For evaluating control of boll weevil (Anthonomus grandis) the test unit consisted of 24-well-microtiter plates containing an insect diet and 20-30 A. grandis eggs. Different concentrations of formulated compounds were sprayed onto the insect diet at 20 μI, using a custom built micro atomizer, at two replications. After application, the microtiter plates were incubated at 23±1° C. and 50±5% relative humidity for 5 days. Egg and larval mortality was then visually assessed.

[5] = tested on: Vanda/orchid thrips (Dichromothrips corbetti); experiment: Activity against Vanda/orchid thrips, dipped orchid petals; conditions: petal dip, after 72 hours, read-out: mortality in comparison with untreated controls
Procedure: The active compounds were formulated as a 50:50 (vohvol) acetone:water solution. Surfactant (Alkamuls® EL 620 from Rhodia) was added at the rate of 0.1% (vol/vol). Vanda orchids petals were cleaned, washed and air dried prior to dipping. Petals were dipped into the test solution for 3 seconds, air dried, placed inside a resealable plastic and inoculated with 20 adults. The treated petals were kept inside the holding room at 28-29° C. and relative humidity of 50-60%. Percent mortality was recorded after 72 hours.

[6] = tested on: Mediterranean fruitfly (Ceratitis capitata); experiment: Activity against Mediterranean fruitfly, insect diet with eggs in microtiter plates; conditions: 120 h, sprayed onto diet with eggs, 5 days, read-out: mortality (egg and larval)
Procedure: The active compounds were formulated in 1:3 (vohvol) DMSO:water.
For evaluating control of Mediterranean fruitfly the test unit consisted of microtiter plates containing an insect diet and 50 to 80 C. capitata eggs.
Different concentrations of formulated compounds were sprayed onto the insect diet at 5 μI, using a custom built micro atomizer, at two replications. After application, microtiter plates were incubated at 28±1° C. and 80±5% relative humidity for 5 days. Egg and larval mortality was then visually assessed.

[7] = tested on: brown planthopper (Nilaparvata lugens); experiment: Activity against brown planthopper, sprayed rice seedlings; conditions: spray, after 72 hours, read-out: mortality in comparison with untreated controls
Procedure: The active compounds were formulated as a 50:50 (vohvol) acetone:water solution. Surfactant (Alkamuls® EL 620 from Rhodia) was added at the rate of 0.1% (vol/vol).
Rice seedlings were cleaned and washed 24 h before spraying. Potted rice seedlings were sprayed with 5 ml test solution, air dried, placed in cages and inoculated with 10 adults. Treated rice plants were kept at 28-29° C. and relative humidity of 50-60%. Percent mortality was recorded after 72 hours.

[8] = tested on: diamondback moth (Plutella xylostella); experiment: Activity against diamondback moth, dipped cabbage leaf disk; conditions: foliar, test solution 500 ppm, leaf dip, third instar larvae, after 72 h, read-out: mortality in comparison with untreated controls
Procedure: The active compounds were formulated in 50:50 acetone:water and 0.1% (vol/vol) Alkamuls® EL 620 surfactant. A 6 cm leaf disk of cabbage leaves was dipped in the test solution for 3 seconds and allowed to air dry in a Petri plate lined with moist filter paper. The leaf disk was inoculated with 10 third instar larvae and kept at 25-27° C. and 50-60% humidity for 3 days. Mortality was assessed after 72 h of treatment.

| SMILES | mortality at 500 ppm [1] [%] | mortality at 2500 µg/mL [2] [%] | mortality at 500 ppm [3] [%] | mortality at 2500 µg/mL [4] [%] | mortality at 500 ppm [5] [%] | mortality at 2500 ppm [6] [%] | mortality at 500 ppm [7] [%] | mortality at 500 ppm [8] [%] |
| --- | --- | --- | --- | --- | --- | --- | --- | --- |
| CC(c1nnc(C(F)(F)F)s1)S(=O)(=O)CCSC(F)(F)F (centres unmarked) [11-2, 2-(Trifluoromethyl)-5-{1-[2-(trifluoromethylthio)ethylsulfonyl]-ethyl}-1,3,4-thiadiazole] | ≥ 75 | 100 | ≥ 75 | 100 | ≥ 75 | ≥ 50 |  |  |
| CC(Cl)(c1nnc(C(F)(F)F)s1)[S+]([O-])CCSC(F)(F)F (centres unmarked) [11-8, 2-{1-Chloro-1-[2-(trifluoromethylthio)ethylsulfinyl]ethyl}-5-(trifluoromethyl)-1,3,4-thiadiazole] |  |  |  | 100 |  |  | ≥ 75 |  |
| CC(C#N)(SCCSC(F)(F)F)c1nnc(C(F)(F)F)s1 (centres unmarked) [11-9, 2-(5-(trifluoromethyl)-1,3,4-thiadiazol-2-yl)-2-(2-(trifluoromethylthio)ethylthio)propanenitrile] |  |  |  |  |  | ≥ 50 |  |  |
| CC(c1nnc(C(F)(F)F)s1)[S+]([O-])CCSC(F)(F)F (centres unmarked) [11-3, 2-(Trifluoromethyl)-5-{1-[2-(trifluoromethylthio)ethylsulfinyl]ethyl}-1,3,4-thiadiazole] | ≥ 75 | 100 |  | 100 | ≥ 75 |  | ≥ 75 | ≥ 75 |
| CC(SCCSC(F)(F)F)c1nnc(C(F)(F)F)s1 (centres unmarked) [11-1, 2-(Trifluoromethyl)-5-{1-[2-(trifluoromethylthio)ethylthio]ethyl}-1,3,4-thiadiazole] |  | 100 |  | 100 |  |  |  |  |
